{"source": "paper PMC5727059", "about": "“Antagonistic effect of dopamine structural analogues on human GABAρ1 receptor” (Scientific Reports, 2017)", "key": {"human GABAρ1 [1]": {"target": "T1, human GABAρ1 (Homo sapiens, UniProt P24046)", "T1 construct": "expressed in transfected cells; host or cells: Xenopus laevis oocytes injected with in vitro transcribed mRNA", "T1 sequence (P24046 22-479)": "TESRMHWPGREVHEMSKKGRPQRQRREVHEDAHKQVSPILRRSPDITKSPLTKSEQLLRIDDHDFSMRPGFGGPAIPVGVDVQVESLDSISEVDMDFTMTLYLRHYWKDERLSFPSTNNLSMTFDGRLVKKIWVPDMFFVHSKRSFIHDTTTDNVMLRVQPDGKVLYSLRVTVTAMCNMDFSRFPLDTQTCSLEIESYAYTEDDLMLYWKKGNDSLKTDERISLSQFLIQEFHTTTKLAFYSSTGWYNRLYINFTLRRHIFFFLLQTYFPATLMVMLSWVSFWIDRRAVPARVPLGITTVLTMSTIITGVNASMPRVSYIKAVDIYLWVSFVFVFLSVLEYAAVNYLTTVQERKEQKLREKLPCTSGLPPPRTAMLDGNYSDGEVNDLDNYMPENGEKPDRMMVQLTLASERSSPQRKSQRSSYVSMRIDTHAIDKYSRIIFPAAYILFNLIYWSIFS", "test": "Modulation of activated GABAρ1: analogue applied during the current plateau upon activation with 3 µM GABA, oocytes", "assay_type": "cell-based", "settings": "for Efficacy % to inhibit GABA responses: activated GABA channels (Fig. 5D empty bars), applied during 3 µM GABA perfusion"}, "LGC-53": {"target": "LGC-53 (Caenorhabditis elegans, UniProt H2KYN9)", "sequence (H2KYN9 entry or part of it)": "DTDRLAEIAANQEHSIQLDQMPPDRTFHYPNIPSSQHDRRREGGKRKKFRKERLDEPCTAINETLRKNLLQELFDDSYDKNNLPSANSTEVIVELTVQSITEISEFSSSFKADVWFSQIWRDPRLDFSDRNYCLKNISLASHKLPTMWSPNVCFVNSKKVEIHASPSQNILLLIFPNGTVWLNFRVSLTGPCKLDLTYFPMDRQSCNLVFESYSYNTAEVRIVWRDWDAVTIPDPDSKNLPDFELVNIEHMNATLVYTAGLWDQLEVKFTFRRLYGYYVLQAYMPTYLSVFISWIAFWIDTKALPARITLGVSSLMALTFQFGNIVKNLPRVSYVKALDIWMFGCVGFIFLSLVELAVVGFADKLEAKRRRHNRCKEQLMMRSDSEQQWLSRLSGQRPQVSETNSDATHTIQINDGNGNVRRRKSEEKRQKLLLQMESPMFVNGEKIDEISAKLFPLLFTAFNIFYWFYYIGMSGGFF", "test": "cell-based", "assay_type": "cell-based", "settings": "for gating or modulation of LGC-53: high concentrations (up to 1 mM); for Emax: read-out: Maximal effect versus maximal response to DA, % current"}, "human GABAρ1 [2]": {"target": "T1, human GABAρ1", "test": "Current-voltage ramp (−120 to +70 mV) of GABA currents in presence of the IC50 of each compound, oocytes", "assay_type": "cell-based", "settings": "3 µM GABA, compound at its IC50; GABA alone as reference", "experimental": "All these compounds are ionized at pH 7.4.\nSupplementary Figure S2. I/V Curves A) Current−voltage relations for GABA currents modulated in presence of DA\nanalogues. B). Percentage of inhibition of DA analogues (for each compound the IC50s were tested) in the currents\nReverse potentials were: -35.25 ± 1.04 mV, -35.69 ±\nreverse potential was -35.07 ± 0.90 mV.\n(1 picture or pasted object on this page, not shown here)"}, "human GABAρ1 [3]": {"target": "T1, human GABAρ1", "test": "Inhibition of GABA currents by co-application of 3 µM GABA and analogue, two-microelectrode voltage clamp in X. laevis oocytes;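 on all read-outs here: oocytes expressing human GABAρ1 from injected mRNA, recorded 1–5 days later, clamped at −60 mV, room temperature, compounds bath-applied at pH 7.4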", "assay_type": "cell-based", "settings": "for extent of inhibition of GABA currents at high concentrations: maximum inhibition compared with full inhibition (100%); for Emax: read-out: Maximal effect on GABA currents, % Inh; for effect on the responses generated by 3 μM GABA: concentrations up to 20 mM, data not shown"}, "human GABAρ1 [4]": {"target": "T1, human GABAρ1", "design": "method as in Ochoa de la Paz et al., 2012", "settings": "Table 1, ref Ochoa de la Paz et al., 2012, cited from earlier work; for IC50: read-out: GABA ρ1 (Human) IC50, oocytes"}, "human GABAρ1 [5]": {"target": "T1, human GABAρ1", "test": "Competition assays: GABA concentration-response curves in presence of 3-MT, oocytes", "assay_type": "cell-based"}, "[6]": {"settings": "receptor activated with GABA 3 µM"}, "[7]": {"settings": "Fig. 7C, maximal concentration tested, DA 300 µM"}}, "note": "“Also recorded” adds a separate entry of the source. Read-outs that look alike come from different tables or passages of the source.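 Wherever EC50 is given: LGC-53 expressed in frog oocytes, two-electrode voltage clamp at −60 mV, analogues bath-applied, full or partial agonism judged by maximal effect against DA applied before and after.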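 Wherever LGC-53 Agonist: Full or partial is given: LGC-53 expressed in frog oocytes, two-electrode voltage clamp at −60 mV, analogues bath-applied, full or partial agonism judged by maximal effect against DA applied before and after.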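 Wherever LGC-53 EC50 (mM) is given: LGC-53 expressed in frog oocytes, two-electrode voltage clamp at −60 mV, analogues bath-applied, full or partial agonism judged by maximal effect against DA applied before and after.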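 Wherever gating or modulation of LGC-53 is given: LGC-53 expressed in frog oocytes, two-electrode voltage clamp at −60 mV, analogues bath-applied, full or partial agonism judged by maximal effect against DA applied before and after.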", "data": [{"smiles": "COc1cc(CCN)ccc1O", "note": "[3-MT, 3-Methoxytyramine]", "values": [{"measurement": "Efficacy % to inhibit GABA responses", "setting": "human GABAρ1 [1]", "value": "51.65 ± 6.93", "unit": "%"}, {"measurement": "decrease of potency on activated receptor versus co-application", "setting": "human GABAρ1 [1]; [6]", "value": 2, "unit": "fold"}, {"measurement": "activity on LGC-53", "setting": "LGC-53", "value": "inactive"}, {"measurement": "LGC-53 EC50 (mM)", "setting": "LGC-53; Table 1", "value": "N.E"}, {"measurement": "gating or modulation of LGC-53", "setting": "LGC-53", "value": "Neither GABA nor 3-MT gated the channel or showed an evident modulatory effect"}, {"measurement": "reversal potential of GABA currents", "setting": "human GABAρ1 [2]", "value": "-35.25 ± 1.04", "unit": "mV"}, {"measurement": "GABA ρ1 (Human) Antagonist: Full or partial", "setting": "human GABAρ1 [3]; Table 1", "value": "full"}, {"measurement": "extent of inhibition of GABA currents at high concentrations", "setting": "human GABAρ1 [3]", "value": "Full inhibition"}, {"measurement": "IC50", "setting": "human GABAρ1 [3]; read-out: GABA ρ1 (Human) IC50, Table 1, oocytes", "value": "285 ± 3", "unit": "µM"}, {"measurement": "Emax", "setting": "human GABAρ1 [3]", "value": "100 ± 2.17", "unit": "%"}]}, {"smiles": "NCCCCO", "note": "[4-AM-1-OH, 4-Amino-1-butanol]", "values": [{"measurement": "Efficacy % to inhibit GABA responses", "setting": "human GABAρ1 [1]", "value": "65.50 ± 4.77", "unit": "%"}, {"measurement": "increase of potency on activated receptor versus co-application", "setting": "human GABAρ1 [1]; receptor activated with GABA 3 µM, not statistically significant", "value": "about 25%"}, {"measurement": "LGC-53 EC50 (mM)", "setting": "LGC-53; Table 1", "value": "N.E"}, {"measurement": "GABA ρ1 (Human) Antagonist: Full or partial", "setting": "human GABAρ1 [3]; Table 1", "value": "full"}, {"measurement": "IC50", "setting": "human GABAρ1 [3]; Table 1, oocytes", "value": "3910 ± 544", "unit": "µM"}, {"measurement": "Emax", "setting": "human GABAρ1 [3]", "value": "98.3 ± 7.3", "unit": "%"}]}, {"smiles": "CNC[C@H](O)c1ccc(O)c(O)c1", "note": "[AD, Adrenaline]", "values": [{"measurement": "LGC-53 Agonist: Full or partial", "setting": "LGC-53", "value": "partial"}, {"measurement": "agonist type on LGC-53", "setting": "LGC-53", "value": "partial agonists"}, {"measurement": "EC50", "setting": "LGC-53; LGC-53 EC50 (mM)", "value": "3.8 ± 0.803", "unit": "mM"}, {"measurement": "Emax", "setting": "LGC-53", "value": "59.2 ± 9.4", "unit": "%"}, {"measurement": "GABA ρ1 (Human) IC50 (mM)", "setting": "human GABAρ1 [3]; Table 1, oocytes", "value": "N.E"}, {"measurement": "effect on the responses generated by 3 μM GABA", "setting": "human GABAρ1 [3]", "value": "failed to elicit any effect"}]}, {"smiles": "NCCc1ccc(O)c(O)c1", "note": "[DA, Dopamine]", "values": [{"measurement": "Efficacy % to inhibit GABA responses", "setting": "human GABAρ1 [1]", "value": "61.94 ± 6.66", "unit": "%"}, {"measurement": "decrease of potency on activated receptor versus co-application", "setting": "human GABAρ1 [1]; [6]", "value": "around 10 fold"}, {"measurement": "LGC-53 Agonist: Full or partial", "setting": "LGC-53", "value": "full"}, {"measurement": "EC50", "setting": "LGC-53; EC50 on LGC-53", "value": "0.00415 ± 0.0011", "unit": "mM"}, {"measurement": "EC50", "setting": "LGC-53; LGC-53 EC50 (mM)", "value": "0.0042 ± 0.001", "unit": "mM"}, {"measurement": "GABA ρ1 (Human) Antagonist: Full or partial", "setting": "human GABAρ1 [4]", "value": "full"}, {"measurement": "IC50", "setting": "human GABAρ1 [4]", "value": "210 ± 1.12", "unit": "µM"}, {"measurement": "currents generated by the compound alone in oocytes injected with human ρ1", "setting": "human GABAρ1 [3]; DA up to 1 mM, no GABA", "value": "did not generate evident currents"}, {"measurement": "extent of inhibition of GABA currents at high concentrations", "setting": "human GABAρ1 [3]", "value": "Full inhibition"}, {"measurement": "Emax", "setting": "human GABAρ1 [3]", "value": "94.3 ± 5.84", "unit": "%"}]}, {"smiles": "O=C(O)Cc1ccc(O)c(O)c1", "note": "[DOPAC, 3,4-Dihydroxyphenylacetic acid]", "values": [{"measurement": "change in potency/efficacy between activated receptor and co-application protocols", "setting": "human GABAρ1 [1]; [6]", "value": "did not show differences in the efficacy or potency"}, {"measurement": "LGC-53 EC50 (mM)", "setting": "LGC-53; Table 1", "value": "N.E"}, {"measurement": "GABA ρ1 (Human) Antagonist: Full or partial", "setting": "human GABAρ1 [3]; Table 1", "value": "partial"}, {"measurement": "IC50", "setting": "human GABAρ1 [3]; Table 1, oocytes", "value": "2250 ± 258", "unit": "µM"}, {"measurement": "extent of inhibition of GABA currents at high concentrations", "setting": "human GABAρ1 [3]", "value": "significantly different from the full inhibition"}, {"measurement": "Emax", "setting": "human GABAρ1 [3]", "value": "93.6 ± 2.41", "unit": "%"}]}, {"smiles": "NCCCC(=O)O", "note": "[GABA, γ-Aminobutyric acid]", "values": [{"measurement": "Hill number of GABA concentration-response curve", "setting": "human GABAρ1 [5]; 3-MT at its IC25", "value": "1.38 ± 0.24"}, {"measurement": "Hill number of GABA concentration-response curve", "setting": "human GABAρ1 [5]; 3-MT at its IC50", "value": "1.40 ± 0.27"}, {"measurement": "Hill number of GABA concentration-response curve", "setting": "human GABAρ1 [5]; 3-MT at its IC75", "value": "1.90 ± 0.36"}, {"measurement": "Hill number of GABA concentration-response curve", "setting": "human GABAρ1 [5]; GABA alone", "value": "1.34 ± 0.37"}, {"measurement": "activity on LGC-53", "setting": "LGC-53", "value": "not modulated; also recorded: neither activated LGC-53 nor modulated the DA responses"}, {"measurement": "gating or modulation of LGC-53", "setting": "LGC-53", "value": "Neither GABA nor 3-MT gated the channel or showed an evident modulatory effect"}, {"measurement": "reversal potential of GABA currents", "setting": "human GABAρ1 [2]", "value": "-35.07 ± 0.90", "unit": "mV"}]}, {"smiles": "COc1cc(CC(=O)O)ccc1O", "note": "[HVA, Homovanillic acid]", "values": [{"measurement": "change in potency/efficacy between activated receptor and co-application protocols", "setting": "human GABAρ1 [1]; [6]", "value": "did not show differences in the efficacy or potency"}, {"measurement": "LGC-53 EC50 (mM)", "setting": "LGC-53; Table 1", "value": "N.E"}, {"measurement": "GABA ρ1 (Human) Antagonist: Full or partial", "setting": "human GABAρ1 [3]; Table 1", "value": "partial"}, {"measurement": "IC50", "setting": "human GABAρ1 [3]; Table 1, oocytes", "value": "1970 ± 211", "unit": "µM"}, {"measurement": "extent of inhibition of GABA currents at high concentrations", "setting": "human GABAρ1 [3]", "value": "significantly different from the full inhibition"}, {"measurement": "Emax", "setting": "human GABAρ1 [3]", "value": "86.5 ± 1.89", "unit": "%"}]}, {"smiles": "N[C@@H](Cc1ccc(O)c(O)c1)C(=O)O", "note": "[L-DOPA, L-3,4-dihydroxyphenylalanine]", "values": [{"measurement": "LGC-53 EC50 (mM)", "setting": "LGC-53; Table 1", "value": "N.E"}, {"measurement": "GABA ρ1 (Human) IC50 (mM)", "setting": "human GABAρ1 [3]; Table 1, oocytes", "value": "N.E"}]}, {"smiles": "NC[C@H](O)c1ccc(O)c(O)c1", "note": "[NAD, Noradrenaline]", "values": [{"measurement": "EC50", "setting": "LGC-53", "value": "0.137 ± 0.072", "unit": "mM"}, {"measurement": "LGC-53 Agonist: Full or partial", "setting": "LGC-53; Table 1", "value": "partial"}, {"measurement": "Emax", "setting": "LGC-53", "value": "61 ± 13", "unit": "%"}, {"measurement": "GABA ρ1 (Human) IC50 (mM)", "setting": "human GABAρ1 [3]; Table 1, oocytes", "value": "N.E"}, {"measurement": "effect on the responses generated by 3 μM GABA", "setting": "human GABAρ1 [3]", "value": "failed to elicit any effect"}]}, {"smiles": "NCCc1ccc(O)cc1", "note": "[Tyr, Tyramine]", "values": [{"measurement": "agonist type on LGC-53", "setting": "LGC-53", "value": "partial agonists"}, {"measurement": "Emax", "setting": "LGC-53; [7]", "value": "64.7 ± 9.6", "unit": "%"}, {"measurement": "LGC-53 Agonist: Full or partial", "setting": "LGC-53; Table 1", "value": "partial"}, {"measurement": "EC50", "setting": "LGC-53; Table 1, read-out: LGC-53 EC50", "value": "2.18 ± 0.482", "unit": "mM"}, {"measurement": "GABA ρ1 (Human) Antagonist: Full or partial", "setting": "human GABAρ1 [4]", "value": "full"}, {"measurement": "IC50", "setting": "human GABAρ1 [4]", "value": "550 ± 12", "unit": "µM"}]}, {"smiles": "NCCc1ccccc1", "note": "[β-PEA, 2-Phenylethylamine]", "values": [{"measurement": "Efficacy % to inhibit GABA responses", "setting": "human GABAρ1 [1]", "value": "63.62 ± 11.44", "unit": "%"}, {"measurement": "decrease of potency on activated receptor versus co-application", "setting": "human GABAρ1 [1]; [6]", "value": 2, "unit": "fold"}, {"measurement": "EC50", "setting": "LGC-53", "value": "1.33 ± 0.433", "unit": "mM"}, {"measurement": "agonist type on LGC-53", "setting": "LGC-53", "value": "partial agonists"}, {"measurement": "Emax", "setting": "LGC-53; [7]", "value": "48.5 ± 10.4", "unit": "%"}, {"measurement": "LGC-53 Agonist: Full or partial", "setting": "LGC-53; Table 1", "value": "partial"}, {"measurement": "IC50", "setting": "human GABAρ1 [3]", "value": "1790 ± 104", "unit": "µM"}, {"measurement": "GABA ρ1 (Human) Antagonist: Full or partial", "setting": "human GABAρ1 [3]; Table 1", "value": "full"}, {"measurement": "Emax", "setting": "human GABAρ1 [3]", "value": "97.3 ± 2.73", "unit": "%"}]}]}
